What all share (assay type): functional
The target of test [1] is T1, Tumor necrosis factor (Homo sapiens, UniProt P01375). In words: Inhibition of TNF-alpha production from human monocytes upon stimulation with bacterial lipopolysaccharide (LPS) at a concentration of 200 uM.
Test [2] deals with T1, Tumor necrosis factor. The experiment in a line: Inhibition of TNF-alpha production from human monocytes upon stimulation with bacterial lipopolysaccharide (LPS) at a concentration of 215 nM. To be noted: values are per cent of control.
Test [3] addresses T1, Tumor necrosis factor. The experiment in a line: Inhibition of TNF-alpha production from human monocytes upon stimulation with bacterial lipopolysaccharide (LPS) at a concentration of 1 uM. As to conditions: values are per cent of control.
Test [4] deals with T1, Tumor necrosis factor. The experiment in a line: Inhibition of TNF-alpha production from human monocytes upon stimulation with bacterial lipopolysaccharide (LPS) at a concentration of 464 nM. To be noted: values are per cent of control.
Test [5] concerns the target T1, Tumor necrosis factor. In words: Inhibition of TNF-alpha production from human monocytes upon stimulation with bacterial lipopolysaccharide (LPS) at a concentration of 100 nM. To be noted: values are per cent of control.
Test [6] concerns the target T1, Tumor necrosis factor. In words: Inhibition of TNF-alpha production from human monocytes upon stimulation with bacterial lipopolysaccharide (LPS) at a concentration of 464 nM,.
Test [7] deals with T1, Tumor necrosis factor. The experiment in a line: Inhibition of TNF-alpha production from human monocytes upon stimulation with bacterial lipopolysaccharide (LPS) at a concentration of 100 nM,.
Test [8] has as its target T1, Tumor necrosis factor. The experiment in a line: Inhibition of TNF-alpha production from human monocytes upon stimulation with bacterial lipopolysaccharide (LPS) at a concentration of 215 nM,.
In test [9] the target is T1, Tumor necrosis factor. In words: Inhibition of TNF-alpha production from human monocytes upon stimulation with bacterial lipopolysaccharide (LPS) at a concentration of 215 uM,.
Test [10] deals with T1, Tumor necrosis factor. The experiment in a line: Inhibition of TNF-alpha production from human monocytes upon stimulation with bacterial lipopolysaccharide (LPS) at a concentration of 100 uM,.
Test [11] addresses T1, Tumor necrosis factor. In words: Inhibition of TNF-alpha production from human monocytes upon stimulation with bacterial lipopolysaccharide (LPS) at a concentration of 464 uM.
Test [12] addresses T1, Tumor necrosis factor. The experiment in a line: Inhibitory activity against TNF-alpha production.

SMILES strings stand for the structures.

T1 sequence (P01375 whole entry): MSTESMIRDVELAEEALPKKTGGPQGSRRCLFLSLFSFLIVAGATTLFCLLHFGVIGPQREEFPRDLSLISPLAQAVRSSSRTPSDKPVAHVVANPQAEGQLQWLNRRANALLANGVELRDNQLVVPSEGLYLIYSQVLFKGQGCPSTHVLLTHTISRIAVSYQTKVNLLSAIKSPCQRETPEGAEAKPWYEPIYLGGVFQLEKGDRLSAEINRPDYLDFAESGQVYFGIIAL

`O=C1CCC(N2C(=O)c3ccccc3C2=O)C(=O)N1` (stereo unspecified): the inhibition (commonly the share of the control response that was lost under treatment) on Tumor necrosis factor [1] was found to be 64%.

For `CC(C)c1cccc(C(C)C)c1N1C(=O)c2c(F)c(F)c(F)c(F)c2C1=O`, the response, % of control came to 10% at Tumor necrosis factor [2], 5% at Tumor necrosis factor [3], 2% on Tumor necrosis factor [4] and 40% on Tumor necrosis factor [5].

In the case of `CC(C)(C)c1cccc(C(C)(C)C)c1N1C(=O)c2c(F)c(F)c(F)c(F)c2C1=O`, the response, % of control is 30% at Tumor necrosis factor [2], -2% on Tumor necrosis factor [3], 15% on Tumor necrosis factor [4] and 40% on Tumor necrosis factor [5].

On to `O=C1CCC(N2C(=O)c3c(Cl)c(Cl)c(Cl)c(Cl)c3C2=O)C(=O)N1` (racemic), for which the response, % of control at Tumor necrosis factor [2] is 90%; at Tumor necrosis factor [3], 75%; at Tumor necrosis factor [4], 80%; at Tumor necrosis factor [5], 80%.

Regarding `O=C1c2c(F)c(F)c(F)c(F)c2C(=O)N1c1ccccc1`, the response, % of control at Tumor necrosis factor [2] came to 65%; on Tumor necrosis factor [3], 65%; at Tumor necrosis factor [4] it was 70%; at Tumor necrosis factor [5], 65%.

In the case of `CC(C)c1cccc(C(C)C)c1N1C(=O)c2c(Cl)c(Cl)c(Cl)c(Cl)c2C1=O`, the response, % of control on Tumor necrosis factor [2] came out at 80%; on Tumor necrosis factor [3], 70%; at Tumor necrosis factor [4] it was 70%; on Tumor necrosis factor [5], 75%.

Take `O=C1CCC(N2C(=O)c3c(Br)c(Br)c(Br)c(Br)c3C2=O)C(=O)N1` (racemic): the response, % of control on Tumor necrosis factor [2] was 60%; at Tumor necrosis factor [3], 53%; at Tumor necrosis factor [4], 62%; at Tumor necrosis factor [5], 70%.

Regarding `CCc1cccc(CC)c1N1C(=O)c2c(F)c(F)c(F)c(F)c2C1=O`, the response, % of control on Tumor necrosis factor [3] was -1%. Moreover, the inhibition at Tumor necrosis factor [6] worked out at 2%; against Tumor necrosis factor [7] it was 43%; at Tumor necrosis factor [8], 20%.

Take `COC(=O)CC(c1ccc(OC)c(OC)c1)N1C(=O)c2c(F)c(F)c(F)c(F)c2C1=O` (racemic): the response, % of control at Tumor necrosis factor [3] is -5%. The inhibition against Tumor necrosis factor [9] turned out to be 30%; on Tumor necrosis factor [10], 55%; against Tumor necrosis factor [11] it was 10%.

Consider `CC(C)c1cccc(C(C)C)c1N1C(=O)c2c(Br)c(Br)c(Br)c(Br)c2C1=O`, for which the response, % of control on Tumor necrosis factor [2] was determined as 70%; on Tumor necrosis factor [3], 62%; at Tumor necrosis factor [4], 53%; at Tumor necrosis factor [5] it was 80%.

As to `O=C1CCC(N2C(=O)c3c(F)c(F)c(F)c(F)c3C2=O)C(=O)N1` (racemic), the response, % of control on Tumor necrosis factor [2] amounted to 70%; on Tumor necrosis factor [3] it was 4%; on Tumor necrosis factor [4], 40%; on Tumor necrosis factor [5], 85%. In addition, the IC50 (in general, the midpoint of a concentration-inhibition curve) against Tumor necrosis factor [12] was 400 nM.

In the case of `Cc1cccc(C)c1N1C(=O)c2c(F)c(F)c(F)c(F)c2C1=O`, the response, % of control came out at 50% on Tumor necrosis factor [2], 3% on Tumor necrosis factor [3], 30% at Tumor necrosis factor [4] and 62% on Tumor necrosis factor [5].

Source of the values: ChEMBL document CHEMBL1129257, “Potent inhibition of tumor necrosis factor-alpha production by tetrafluorothalidomide and tetrafluorophthalimides” (J Med Chem, 1996).
